Measured values as given in patent publication US9642831B2, “Substituted chromanes and method of use” (AbbVie S.á.r.l., priority 2014, dated 2017).

Target: F508delCFTR (Homo sapiens, UniProt P13569, DEL508-508)
Assay: Cell Surface Expression-Horse Radish Peroxidase (CSE-HRP) assay
Assay type: cell-based
Parameters: expressed in transfected cells; host or cells: CFBE41o- human lung derived epithelial cell line, doxycycline-inducible
Settings: CFBE4lo-F508delCFTR-HRP cells; for EC50: 18-24 hours at 33° C., 8-point curve, highest concentration 20 μM, luminescence readout; for Emax: maximum % activity at any tested concentration, normalized to on-plate positive control (3 μM Example 1)
Procedure, shortened: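 Following 18-24 h compound exposure at 33° C. Expression was doxycycline-induced beforehand. % activity versus DMSO and a 3 μM corrector control gave maximum activity and EC50 from a variable-Hill sigmoidal fit.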

F508delCFTR, sequence (P13569 with tags, fused parts or gaps DEL508-508): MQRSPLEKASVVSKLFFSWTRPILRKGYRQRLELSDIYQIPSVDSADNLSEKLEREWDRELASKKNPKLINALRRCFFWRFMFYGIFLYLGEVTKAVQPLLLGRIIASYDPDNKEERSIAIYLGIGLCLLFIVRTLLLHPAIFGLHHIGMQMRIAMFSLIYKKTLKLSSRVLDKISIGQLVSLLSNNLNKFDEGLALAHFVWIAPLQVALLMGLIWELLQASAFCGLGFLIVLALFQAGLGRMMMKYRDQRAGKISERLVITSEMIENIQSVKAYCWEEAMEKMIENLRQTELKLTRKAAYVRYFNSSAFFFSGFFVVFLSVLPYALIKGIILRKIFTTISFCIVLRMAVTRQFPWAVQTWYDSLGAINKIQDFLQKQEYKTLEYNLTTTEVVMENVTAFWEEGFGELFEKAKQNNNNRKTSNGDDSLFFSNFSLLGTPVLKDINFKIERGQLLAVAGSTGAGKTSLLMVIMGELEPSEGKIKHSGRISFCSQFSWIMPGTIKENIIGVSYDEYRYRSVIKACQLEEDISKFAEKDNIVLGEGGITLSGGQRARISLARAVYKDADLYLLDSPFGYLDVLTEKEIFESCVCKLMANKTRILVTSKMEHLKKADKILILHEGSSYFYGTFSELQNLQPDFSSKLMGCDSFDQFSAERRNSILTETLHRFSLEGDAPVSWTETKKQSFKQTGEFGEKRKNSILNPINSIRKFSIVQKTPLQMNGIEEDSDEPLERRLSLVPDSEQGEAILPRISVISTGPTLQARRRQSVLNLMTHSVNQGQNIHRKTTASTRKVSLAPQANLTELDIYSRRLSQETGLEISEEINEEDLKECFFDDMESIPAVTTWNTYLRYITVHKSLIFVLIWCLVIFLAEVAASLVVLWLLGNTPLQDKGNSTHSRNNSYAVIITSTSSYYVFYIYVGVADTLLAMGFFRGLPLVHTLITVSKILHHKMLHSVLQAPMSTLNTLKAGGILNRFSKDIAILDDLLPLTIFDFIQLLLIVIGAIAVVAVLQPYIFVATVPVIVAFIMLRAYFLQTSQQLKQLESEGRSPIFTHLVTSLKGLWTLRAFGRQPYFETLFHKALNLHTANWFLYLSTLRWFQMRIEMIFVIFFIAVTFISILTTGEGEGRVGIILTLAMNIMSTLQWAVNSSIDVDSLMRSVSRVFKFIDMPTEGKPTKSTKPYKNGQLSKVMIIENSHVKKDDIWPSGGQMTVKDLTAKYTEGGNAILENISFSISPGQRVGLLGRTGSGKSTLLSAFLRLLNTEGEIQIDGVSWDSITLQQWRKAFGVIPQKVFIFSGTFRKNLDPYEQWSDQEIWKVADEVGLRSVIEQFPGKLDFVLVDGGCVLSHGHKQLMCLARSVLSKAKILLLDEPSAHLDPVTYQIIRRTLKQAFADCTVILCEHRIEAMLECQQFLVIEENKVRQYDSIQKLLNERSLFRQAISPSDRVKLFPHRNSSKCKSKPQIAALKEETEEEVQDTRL

In the case of `COc1ccc2c(c1)O[C@@H](C(=O)O)C[C@H]2NC(=O)C1(c2ccc3c(c2)OC(F)(F)O3)CC1` (racemic) [Example 164, rac-(2R,4R)-4-({[1-(2,2-difluoro-1,3-benzodioxol-5-yl)cyclopropyl]carbonyl}amino)-7-methoxy-3,4-dihydro-2H-chromene-2-carboxylic acid], the EC50 is reported as > 20000 nM and the Emax is reported as 2%.
`O=C(O)c1ccc([C@H]2C[C@@H](NC(=O)C3(c4cc5c(cc4Br)OC(F)(F)O5)CC3)c3ccc(OC(F)F)cc3O2)cc1` [Example 202, 4-[(2R,4R)-4-({[1-(6-bromo-2,2-difluoro-1,3-benzodioxol-5-yl)cyclopropyl]carbonyl}amino)-7-(difluoromethoxy)-3,4-dihydro-2H-chromen-2-yl]benzoic acid] was tested, and the EC50 was 10 nM and the Emax was 142%.
Work on `COc1ccc2c(c1)O[C@@H](C(=O)N1CCC(O)CC1)C[C@@H]2NC(=O)C1(c2ccc3c(c2)OC(F)(F)O3)CC1` (racemic) [Example 186, rac-1-(2,2-difluoro-1,3-benzodioxol-5-yl)-N-{(2R,4S)-2-[(4-hydroxypiperidin-1-yl)carbonyl]-7-methoxy-3,4-dihydro-2H-chromen-4-yl}cyclopropanecarboxamide] yielded an EC50 of 1360 nM and an Emax of 66%.
`COC(=O)c1cccc([C@H]2C[C@@H](NC(=O)C3(c4ccc5c(c4)OC(F)(F)O5)CC3)c3ccc(OCc4ccccc4)cc3O2)c1` [Example 95, methyl 3-[(2R,4R)-7-(benzyloxy)-4-({[1-(2,2-difluoro-1,3-benzodioxol-5-yl)cyclopropyl]carbonyl}amino)-3,4-dihydro-2H-chromen-2-yl]benzoate] was tested, and the EC50 was 920 nM and the Emax was 98%.
`CS(=O)(=O)NC(=O)c1ccc([C@H]2C[C@@H](NC(=O)C3(c4ccc5c(c4)OC(F)(F)O5)CC3)c3ccc(OC(F)F)cc3O2)cc1` [Example 203, 4-[(2R,4R)-4-({[1-(2,2-difluoro-1,3-benzodioxol-5-yl)cyclopropyl]carbonyl}amino)-7-(difluoromethoxy)-3,4-dihydro-2H-chromen-2-yl]-N-(methylsulfonyl)benzamide] gave an EC50 of 690 nM and an Emax of 157%.
In the case of `COc1ccc2c(c1)O[C@@H](C(=O)NC1c3ccccc3CC1O)C[C@H]2NC(=O)C1(c2ccc3c(c2)OC(F)(F)O3)CC1` (mixture of isomers) [Example 181, rac-(2R,4R)-4-({[1-(2,2-difluoro-1,3-benzodioxol-5-yl)cyclopropyl]carbonyl}amino)-N-(2-hydroxy-2,3-dihydro-1H-inden-1-yl)-7-methoxy-3,4-dihydro-2H-chromene-2-carboxamide], the EC50 is reported as 1590 nM and the Emax is reported as 57%.
`Cc1ccc2c(c1)O[C@@H](c1cccc(C(=O)O)c1)C[C@@H]2NC(=O)C1(c2ccc3c(c2)OC(F)(F)O3)CC1` [Example 15, 3-[(2R,4S)-4-({[1-(2,2-difluoro-1,3-benzodioxol-5-yl)cyclopropyl]carbonyl}amino)-7-methyl-3,4-dihydro-2H-chromen-2-yl]benzoic acid] was tested, and the EC50 was 2470 nM and the Emax was 101%.
For `O=C(O)c1cccc([C@H]2C[C@@H](NC(=O)C3(c4ccc5c(c4)OC(F)(F)O5)CC3)c3ccc(OCCF)cc3O2)c1` [Example 106, 3-[(2R,4R)-4-({[1-(2,2-difluoro-1,3-benzodioxol-5-yl)cyclopropyl]carbonyl}amino)-7-(2-fluoroethoxy)-3,4-dihydro-2H-chromen-2-yl]benzoic acid], the EC50 was 310 nM and the Emax was 88%.
`O=C(NC1CC2(CCNCC2)Oc2cc(F)ccc21)C1(c2ccc3c(c2)OC(F)(F)O3)CC1` (stereo not shown) [Example 93, 1-(2,2-difluoro-1,3-benzodioxol-5-yl)-N-(7-fluoro-3,4-dihydrospiro[chromene-2,4′-piperidin]-4-yl)cyclopropanecarboxamide] showed an EC50 of 2800 nM and an Emax of 26%.
Work on `C[C@@]1(CF)C[C@@H](NC(=O)C2(c3ccc4c(c3)OC(F)(F)O4)CC2)c2ccc(C(F)(F)F)cc2O1` [Example 80, 1-(2,2-difluoro-1,3-benzodioxol-5-yl)-N-[(2S,4R)-2-(fluoromethyl)-2-methyl-7-(trifluoromethyl)-3,4-dihydro-2H-chromen-4-yl]cyclopropanecarboxamide] yielded an EC50 of 1550 nM and an Emax of 114%.
With `COC(=O)c1cccc([C@H]2C[C@@H](NC(=O)C3(c4ccc5c(c4)OC(F)(F)O5)CC3)c3ccc(OC)cc3O2)c1` [Example 6, methyl 3-[(2R,4R)-4-({[1-(2,2-difluoro-1,3-benzodioxol-5-yl)cyclopropyl]carbonyl}amino)-7-methoxy-3,4-dihydro-2H-chromen-2-yl]benzoate] the EC50 was 380 nM and the Emax was 120%.
Work on `CCOC(=O)c1cnc([C@@H]2C[C@H](NC(=O)C3(c4ccc5c(c4)OC(F)(F)O5)CC3)c3ccccc3O2)s1` (stereo in doubt) [Example 132, ethyl rel-2-[(2S,4S)-4-({[1-(2,2-difluoro-1,3-benzodioxol-5-yl)cyclopropyl]carbonyl}amino)-3,4-dihydro-2H-chromen-2-yl]-1,3-thiazole-5-carboxylate] yielded an EC50 of 3440 nM and an Emax of 86%.
`CCOC(=O)c1cccc([C@@H]2C[C@H](NC(=O)C3(c4ccc5c(c4)OC(F)(F)O5)CC3)c3ccncc3O2)c1` (stereo in doubt) [Example 24, ethyl rel-3-[(2S,4S)-4-({[1-(2,2-difluoro-1,3-benzodioxol-5-yl)cyclopropyl]carbonyl}amino)-3,4-dihydro-2H-pyrano[2,3-c]pyridin-2-yl]benzoate] gave an EC50 of 8370 nM and an Emax of 63%.
Compound `CCOC(=O)c1ccc([C@H]2C[C@@H](NC(=O)C3(c4ccc5c(c4)OC(F)(F)O5)CC3)c3ccccc3O2)nc1` (racemic) [Example 150, ethyl rac-6-[(2R,4R)-4-({[1-(2,2-difluoro-1,3-benzodioxol-5-yl)cyclopropyl]carbonyl}amino)-3,4-dihydro-2H-chromen-2-yl]pyridine-3-carboxylate] has an EC50 of 420 nM and an Emax of 106%.
`COC(=O)c1cccc([C@H]2C[C@H](NC(=O)C3(c4ccc5c(c4)OC(F)(F)O5)CC3)c3ccc(F)nc3O2)c1` (racemic) [Example 118, methyl rac-3-[(2R,4S)-4-({[1-(2,2-difluoro-1,3-benzodioxol-5-yl)cyclopropyl]carbonyl}amino)-7-fluoro-3,4-dihydro-2H-pyrano[2,3-b]pyridin-2-yl]benzoate] gave an EC50 of 8150 nM and an Emax of 25%.
In the case of `COc1ccc2c(c1)OC(C1CN(S(C)(=O)=O)C1)CC2NC(=O)C1(c2ccc3c(c2)OC(F)(F)O3)CC1` (mixture of isomers) [Example 117, 1-(2,2-difluoro-1,3-benzodioxol-5-yl)-N-{7-methoxy-2-[1-(methylsulfonyl)azetidin-3-yl]-3,4-dihydro-2H-chromen-4-yl}cyclopropanecarboxamide], the EC50 is reported as 6010 nM and the Emax is reported as 82%.
`CCC1(CC)C[C@@H](NC(=O)C2(c3ccc4c(c3)OC(F)(F)O4)CC2)c2ccccc2O1` [Example 74, N-[(4R)-2,2-diethyl-3,4-dihydro-2H-chromen-4-yl]-1-(2,2-difluoro-1,3-benzodioxol-5-yl)cyclopropanecarboxamide] gave an EC50 of 5530 nM and an Emax of 98%.
With `CCOC(=O)c1cnc([C@H]2C[C@@H](NC(=O)C3(c4ccc5c(c4)OC(F)(F)O5)CC3)c3ccccc3O2)s1` (stereo in doubt) [Example 135, ethyl rel-2-[(2R,4R)-4-({[1-(2,2-difluoro-1,3-benzodioxol-5-yl)cyclopropyl]carbonyl}amino)-3,4-dihydro-2H-chromen-2-yl]-1,3-thiazole-5-carboxylate] the EC50 was 1510 nM and the Emax was 97%.
With `COc1ccc2c(c1)O[C@@H](c1ccc(C(=O)O)cn1)C[C@H]2NC(=O)C1(c2ccc3c(c2)OC(F)(F)O3)CC1` (relative stereo) [Example 165, rel-6-[(2R,4R)-4-({[1-(2,2-difluoro-1,3-benzodioxol-5-yl)cyclopropyl]carbonyl}amino)-7-methoxy-3,4-dihydro-2H-chromen-2-yl]pyridine-3-carboxylic acid] the EC50 was 90 nM and the Emax was 123%.
In the case of `COc1ccc2c(c1)O[C@@H](C(=O)N1CCC(F)(F)CC1)C[C@H]2NC(=O)C1(c2ccc3c(c2)OC(F)(F)O3)CC1` (racemic) [Example 174, rac-1-(2,2-difluoro-1,3-benzodioxol-5-yl)-N-{(2R,4R)-2-[(4,4-difluoropiperidin-1-yl)carbonyl]-7-methoxy-3,4-dihydro-2H-chromen-4-yl}cyclopropanecarboxamide], the EC50 is reported as 1730 nM and the Emax is reported as 55%.
With `C[C@@]1(C(F)F)C[C@@H](NC(=O)C2(c3ccc4c(c3)OC(F)(F)O4)CC2)c2ccccc2O1` [Example 82, 1-(2,2-difluoro-1,3-benzodioxol-5-yl)-N-[(2S,4R)-2-(difluoromethyl)-2-methyl-3,4-dihydro-2H-chromen-4-yl]cyclopropanecarboxamide] the EC50 was 2720 nM and the Emax was 97%.
In the case of `COc1ccc2c(c1)O[C@@H](C(=O)N(C)C1COC1)C[C@@H]2NC(=O)C1(c2ccc3c(c2)OC(F)(F)O3)CC1` (racemic) [Example 195, rac-(2R,4S)-4-({[1-(2,2-difluoro-1,3-benzodioxol-5-yl)cyclopropyl]carbonyl}amino)-7-methoxy-N-methyl-N-(oxetan-3-yl)-3,4-dihydro-2H-chromene-2-carboxamide], the EC50 is reported as 7530 nM and the Emax is reported as 37%.
`CCOC(=O)c1csc([C@H]2C[C@H](NC(=O)C3(c4ccc5c(c4)OC(F)(F)O5)CC3)c3ccccc3O2)n1` (relative stereo) [Example 141, ethyl rel-2-[(2R,4S)-4-({[1-(2,2-difluoro-1,3-benzodioxol-5-yl)cyclopropyl]carbonyl}amino)-3,4-dihydro-2H-chromen-2-yl]-1,3-thiazole-4-carboxylate] showed an EC50 of 3050 nM and an Emax of 54%.
